Reference: US9029325B2, “Amylin analogues and pharmaceutical compositions thereof” (Novo Nordisk A/S, priority 2011, dated 2015)
Starred links: 1 amine or outer side, 2 acyl side, 3 side chain; linkers in the order of their positions; H or OH if unused. Positions of bridges follow the written chain, without caps; N, C: chain ends. Residues, ends and D or L forms follow the SMILES beside them. *: point of attachment. C20 diacid = O=C(O)CCCCCCCCCCCCCCCCCCC(=O)*; C18 diacid = O=C(O)CCCCCCCCCCCCCCCCC(=O)*; γGlu = O=C(O)[C@H](CCC(=O)[*:2])N[*:1]

Assay: Assay (I) efficacy testing on appetite (food intake), ad libitum fed rat model
Type: in vivo, Sprague Dawley (SD) rats
From the text: Sprague Dawley (SD) rats from Taconic Europe, Denmark are used for the experiments. The rats have a body weight 200-250 g at the start of experiment. The rats arrive at least 10-14 days before start of experiment to allow acclimatization to experimental settings. During this period the animals are handled at least 2 times. After arrival rats are housed individually for one week in a reversed light/dark phase (meaning that lights are off during daytime and on during nighttime) […]. Since rats are normally active and eat their major part of their daily food intake during the dark period, rats are dosed in the morning right before lights are turned off. This set-up results in the lowest data variation and highst test sensitivity. The experiment is conducted in the rats' home cages and rats have free access to food and water througout the acclimatization period and the experiment period. Each dose of derivative is tested in a group of 5-8 rats. A vehicle group of 6-8 rats is included in each set of testing. Rats are dosed once according to body weight with a 0.01-3 mg/kg solution administered intraperitoneally (ip), orally (po) or subcutaneously (sc). The time of dosing is recorded for each group. After dosing, the rats are returned to their home cages, where they then have access to food and water. The food consumption is recorded individually continuously by on-line registration or manually every hour for 7 hours, and then after 24 h and sometimes 48 h. At the end of the experimental session, the animals are euthanised.
The individual data are recorded in Microsoft excel sheets. Outliers are excluded after applying the Grubbs statistical evaluation test for outliers, and the result is presented graphically using the GraphPad Prism program.

| Structure (SMILES) | Food intake reduction 0-24 h 3 nmol/kg (%) (0-24 h) | Food intake reduction 24-48 h 3 nmol/kg (%) (24-48 h) | Food intake reduction 0-24 h 30 nmol/kg (%) (30 nmol/kg, 0-24 h) | Food intake reduction 24-48 h 30 nmol/kg (%) (30 nmol/kg, 24-48 h) |
| --- | --- | --- | --- | --- |
| CC[C@H](C)[C@H](NC(=O)[C@@H]1CCCN1C(=O)CNC(=O)[C@H](Cc1ccccc1)NC(=O)[C@H](CC(N)=O)NC(=O)[C@H](CC(N)=O)NC(=O)[C@H](CO)NC(=O)[C@H](CO)NC(=O)[C@H](Cc1c[nH]cn1)NC(=O)[C@H](CCCNC(=N)N)NC(=O)[C@H](CC(C)C)NC(=O)[C@H](Cc1ccccc1)NC(=O)[C@H](CCC(=O)O)NC(=O)[C@H](C)NC(=O)[C@H](CC(C)C)NC(=O)[C@H](CCCNC(=N)N)NC(=O)[C@H](CCC(N)=O)NC(=O)[C@@H](NC(=O)[C@H](C)NC(=O)[C@@H]1CSSC[C@H](NC(=O)[C@H](CCCCN)NC(=O)CC[C@H](NC(=O)CCCCCCCCCCCCCCCCCCC(=O)O)C(=O)O)C(=O)N[C@@H](CC(N)=O)C(=O)N[C@@H]([C@@H](C)O)C(=O)N[C@@H](C)C(=O)N[C@@H]([C@@H](C)O)C(=O)N1)[C@@H](C)O)C(=O)N[C@@H](CC(C)C)C(=O)N1CCC[C@H]1C(=O)N1CCC[C@H]1C(=O)N[C@H](C(=O)N[C@@H](CC(N)=O)C(=O)N[C@H](C(=O)NCC(=O)N[C@@H](CO)C(=O)N[C@@H](Cc1c[nH]cn1)C(=O)N[C@H](C(=O)N[C@@H](Cc1ccc(O)cc1)C(N)=O)[C@@H](C)O)C(C)C)[C@@H](C)O [Example 57, N-alpha-[(S)-4-Carboxy-4-(19-carboxynonadecanoylamino)butyryl]-[Glu14,Arg17,His35]-pramlintide] ({C20 diacid-γGlu}-KCNTATCATQRLAEFLRHSSNNFGPILPPTNVGSHTY-NH2; disulfide 2-7 (inferred); C-terminus assumed) | 17 | 0 |  |  |
| CC[C@H](C)[C@H](NC(=O)[C@@H]1CCCN1C(=O)CNC(=O)[C@H](Cc1ccccc1)NC(=O)[C@H](CC(N)=O)NC(=O)[C@H](CC(N)=O)NC(=O)[C@H](CO)NC(=O)[C@H](CO)NC(=O)[C@H](Cc1c[nH]cn1)NC(=O)[C@H](Cc1c[nH]cn1)NC(=O)[C@H](CC(C)C)NC(=O)[C@H](Cc1ccccc1)NC(=O)[C@H](CCC(=O)O)NC(=O)[C@H](C)NC(=O)[C@H](CC(C)C)NC(=O)[C@H](CCCNC(=N)N)NC(=O)[C@H](CCC(N)=O)NC(=O)[C@@H](NC(=O)[C@H](C)NC(=O)[C@@H]1CSSC[C@H](NC(=O)[C@H](CCCCN)NC(=O)CC[C@H](NC(=O)CCCCCCCCCCCCCCCCC(=O)O)C(=O)O)C(=O)N[C@@H](CC(N)=O)C(=O)N[C@@H]([C@@H](C)O)C(=O)N[C@@H](C)C(=O)N[C@@H]([C@@H](C)O)C(=O)N1)[C@@H](C)O)C(=O)N[C@@H](CC(C)C)C(=O)N1CCC[C@H]1C(=O)N1CCC[C@H]1C(=O)N[C@H](C(=O)N[C@@H](CC(N)=O)C(=O)N[C@H](C(=O)NCC(=O)N[C@@H](CO)C(=O)N[C@@H](Cc1c[nH]cn1)C(=O)N[C@H](C(=O)N[C@@H](Cc1ccc(O)cc1)C(N)=O)[C@@H](C)O)C(C)C)[C@@H](C)O [Example 59, N-alpha-[(S)-4-Carboxy-4-(17-carboxyheptadecanoylamino)butyryl]-[Glu14,His17,His 35]-pramlintide] ({C18 diacid-γGlu}-KCNTATCATQRLAEFLHHSSNNFGPILPPTNVGSHTY-NH2; disulfide 2-7 (inferred); C-terminus assumed) | 59 | 27 |  |  |
| CC[C@H](C)[C@H](NC(=O)[C@@H]1CCCN1C(=O)CNC(=O)[C@H](Cc1ccccc1)NC(=O)[C@H](CC(N)=O)NC(=O)[C@H](CC(N)=O)NC(=O)[C@H](CO)NC(=O)[C@H](CO)NC(=O)[C@H](Cc1c[nH]cn1)NC(=O)[C@H](Cc1c[nH]cn1)NC(=O)[C@H](CC(C)C)NC(=O)[C@H](Cc1ccccc1)NC(=O)[C@H](CCC(=O)O)NC(=O)[C@H](C)NC(=O)[C@H](CC(C)C)NC(=O)[C@H](CCCNC(=N)N)NC(=O)[C@H](CCC(N)=O)NC(=O)[C@@H](NC(=O)[C@H](C)NC(=O)[C@@H]1CSSC[C@H](NC(=O)[C@H](Cc2c[nH]cn2)NC(=O)CC[C@H](NC(=O)CCCCCCCCCCCCCCCCCCC(=O)O)C(=O)O)C(=O)N[C@@H](CC(N)=O)C(=O)N[C@@H]([C@@H](C)O)C(=O)N[C@@H](C)C(=O)N[C@@H]([C@@H](C)O)C(=O)N1)[C@@H](C)O)C(=O)N[C@@H](CC(C)C)C(=O)N1CCC[C@H]1C(=O)N1CCC[C@H]1C(=O)N[C@H](C(=O)N[C@@H](CC(N)=O)C(=O)N[C@H](C(=O)NCC(=O)N[C@@H](CO)C(=O)N[C@@H](CC(N)=O)C(=O)N[C@H](C(=O)N1CCC[C@H]1C(N)=O)[C@@H](C)O)C(C)C)[C@@H](C)O [Example 84, N-alpha-[(S)-4-Carboxy-4-(19-carboxynonadecanoylamino)butyryl]-[His1, Glu14, His17, Pro37]-pramlintide] ({C20 diacid-γGlu}-HCNTATCATQRLAEFLHHSSNNFGPILPPTNVGSNTP-NH2; disulfide 2-7) | 68 | 67 |  |  |
| CC[C@H](C)[C@H](NC(=O)[C@@H]1CCCN1C(=O)CNC(=O)[C@H](Cc1ccccc1)NC(=O)[C@H](CC(N)=O)NC(=O)[C@H](CC(N)=O)NC(=O)[C@H](CO)NC(=O)[C@H](CO)NC(=O)[C@H](CCCNC(=N)N)NC(=O)[C@H](Cc1c[nH]cn1)NC(=O)[C@H](CC(C)C)NC(=O)[C@H](Cc1ccccc1)NC(=O)[C@H](CCC(=O)O)NC(=O)[C@H](C)NC(=O)[C@H](CC(C)C)NC(=O)[C@H](CCCNC(=N)N)NC(=O)[C@H](CCC(N)=O)NC(=O)[C@@H](NC(=O)[C@H](C)NC(=O)[C@@H]1CSSC[C@H](NC(=O)[C@H](Cc2c[nH]cn2)NC(=O)CC[C@H](NC(=O)CCCCCCCCCCCCCCCCCCC(=O)O)C(=O)O)C(=O)N[C@@H](CC(N)=O)C(=O)N[C@@H]([C@@H](C)O)C(=O)N[C@@H](C)C(=O)N[C@@H]([C@@H](C)O)C(=O)N1)[C@@H](C)O)C(=O)N[C@@H](CC(C)C)C(=O)N1CCC[C@H]1C(=O)N1CCC[C@H]1C(=O)N[C@H](C(=O)N[C@@H](CC(N)=O)C(=O)N[C@H](C(=O)NCC(=O)N[C@@H](CO)C(=O)N[C@@H](CC(N)=O)C(=O)N[C@H](C(=O)N[C@@H](Cc1ccc(O)cc1)C(N)=O)[C@@H](C)O)C(C)C)[C@@H](C)O [compound 1] ({C20 diacid-γGlu}-HCNTATCATQRLAEFLHRSSNNFGPILPPTNVGSNTY-NH2; disulfide 2-7) | 50 | 45 | 93 | 92 |
| CC[C@H](C)[C@H](NC(=O)[C@@H]1CCCN1C(=O)CNC(=O)[C@H](Cc1ccccc1)NC(=O)[C@H](CC(N)=O)NC(=O)[C@H](CC(N)=O)NC(=O)[C@H](CO)NC(=O)[C@H](CO)NC(=O)[C@H](CCCNC(=N)N)NC(=O)[C@H](Cc1c[nH]cn1)NC(=O)[C@H](CC(C)C)NC(=O)[C@H](Cc1ccccc1)NC(=O)[C@H](CCC(=O)O)NC(=O)[C@H](C)NC(=O)[C@H](CC(C)C)NC(=O)[C@H](CCCNC(=N)N)NC(=O)[C@H](CCC(N)=O)NC(=O)[C@@H](NC(=O)[C@H](C)NC(=O)[C@@H]1CSSC[C@H](NC(=O)CC[C@H](NC(=O)CCCCCCCCCCCCCCCCCCC(=O)O)C(=O)O)C(=O)NCC(=O)N[C@@H]([C@@H](C)O)C(=O)N[C@@H](C)C(=O)N[C@@H]([C@@H](C)O)C(=O)N1)[C@@H](C)O)C(=O)N[C@@H](CC(C)C)C(=O)N1CCC[C@H]1C(=O)N1CCC[C@H]1C(=O)N[C@H](C(=O)N[C@@H](CCC(=O)O)C(=O)N[C@H](C(=O)NCC(=O)N[C@@H](CO)C(=O)NCC(=O)N[C@H](C(=O)N[C@@H](Cc1ccc(O)cc1)C(N)=O)[C@@H](C)O)C(C)C)[C@@H](C)O [compound 3] ({C20 diacid-γGlu}-CGTATCATQRLAEFLHRSSNNFGPILPPTEVGSGTY-NH2; disulfide 1-6 (inferred); C-terminus assumed) | 37 | 32 |  |  |
